# In patent publication US20040067592A1, “Process for controlling microbial contamination of polymeric emulsions using carbon dioxide detection” (priority 2002, published 2004):
# Structures can show the parent of a compound that is named as a salt.
# Key:
# [1] = system: Gluconoacetobacter liquefaciens; assay: Dilution plate count on potato dextrose agar of inoculated AIRFLEX 400 emulsion after biocide addition; type: cell-based
# Protocol: (§1) In an effort to determine the efficacy of carbon dioxide measurement as a detection mechanism for microbial growth, AIRFLEX 400 (1600 grams) poly(vinyl alcohol) stabilized (some biocide present) vinyl acetate/ethylene polymeric emulsion was inoculated with Gluconoacetobacter liquefaciens. The resulting concentration of Gluconoacetobacter liquefaciens in the Airflex 400 emulsion was measured via a dilution plate count on potato dextrose agar and found to be 5.4×10^4 cfu/ml. The contaminated emulsion was placed in a 2L plastic Nalgene container. The modified cover, equipped with the carbon dioxide sensor and vent hole, described in Example 1 was tightly screwed on. The headspace carbon dioxide level began rising above background (˜400 ppm) within a matter of minutes. After continually monitoring this sample for 2 days, the headspace carbon dioxide concentration leveled out at about 1600 ppm.
# (§2) The sample was then monitored for headspace carbon dioxide concentration as described in Examples 1 and 2. After continually monitoring this sample for 2 days the headspace carbon dioxide concentration leveled out at about 1150 ppm. A sample of the AIRFLEX 400 poly(vinyl alcohol) stabilized vinyl acetate/ethylene polymeric emulsion was removed from the container and the concentration of Gluconoacetobacter liquefaciens was measured on potato dextrose agar using a dilution plate count method.
# as §2, with “To the same contaminated sample described in Example 3 was added an additional 375 ppm DGH to further reduce the Gluconoacetobacter liquefaciens concentration. The” for “The”, “for 3” for “for 2”, “about 1000” for “about 1150”
# as §2, with “To the same contaminated sample described in Example 4 was added an additional 350 ppm DGH to further reduce the Gluconoacetobacter liquefaciens concentration. The” for “The”, “for 3” for “for 2”, “about 800” for “about 1150”, “400” for “400 poly(vinyl alcohol) stabilized vinyl acetate/ethylene polymeric”
# [2] = system: Gluconoacetobacter liquefaciens; assay: Headspace carbon dioxide concentration over inoculated AIRFLEX 400 emulsion after biocide addition; type: cell-based
# Excerpt: Sterile AIRFLEX® 400 (1600 grams) poly(vinyl alcohol) stabilized vinyl acetate/ethylene polymeric emulsion was placed in a 2L plastic Nalgene container. The plastic cover was modified with two ports. The first port was used to mount and insert the carbon dioxide sensor and the second, much smaller diameter port was left open to the atmosphere to permit venting and a constant pressure within the container. A Vaisala GMT222 direct reading carbon dioxide transmitter connected to a data logger and computer was used as the measuring device. The cover was then screwed on tightly and the headspace carbon dioxide concentration measured over the course of 3 days. During this entire monitoring period the headspace carbon dioxide concentration remained steady at approximately 400 ppm.
# as §1
# To the same contaminated sample described in Example 2 was added 400 ppm of dodecylguanidine hydrochloride (DGH) biocide to reduce the Gluconoacetobacter liquefaciens concentration.
# as §2
# as §2, with “To the same contaminated sample described in Example 3 was added an additional 375 ppm DGH to further reduce the Gluconoacetobacter liquefaciens concentration. The” for “The”, “for 3” for “for 2”, “about 1000” for “about 1150”
# as §2, with “To the same contaminated sample described in Example 4 was added an additional 350 ppm DGH to further reduce the Gluconoacetobacter liquefaciens concentration. The” for “The”, “for 3” for “for 2”, “about 800” for “about 1150”, “400” for “400 poly(vinyl alcohol) stabilized vinyl acetate/ethylene polymeric”
# [3] = Example 3, biocide 400 ppm, time 24 hour
# [4] = Example 4, biocide 375 ppm (additional), time 96 hour
# [5] = Example 5, biocide 350 ppm (additional), time 96 hour
smiles,measurement,setting,value
"CCCCCCCCCCCCNC(=N)N [DGH, dodecylguanidine hydrochloride]",Gluconoacetobacter liquefaciens contamination level,"[1]; Example 3: 400 ppm DGH added to contaminated AIRFLEX 400 (5.4×10^4 cfu/ml before), after 2 days",1.30×10^4 cfu/ml
same,Contamination,[1]; [3],1.3 × 10^4 CFU/ml
same,Gluconoacetobacter liquefaciens contamination level,"[1]; Example 4: additional 375 ppm DGH added to Example 3 sample (400 ppm DGH), after 3 days",4.40×10^3 cfu/ml
same,Contamination,[1]; [4],4.4 × 10^3 CFU/ml
same,Gluconoacetobacter liquefaciens contamination level,"[1]; Example 5: additional 350 ppm DGH added to Example 4 sample (400 + 375 ppm DGH), after 3 days",3.20×10^2 cfu/ml
same,Contamination,[1]; [5],3.2 × 10^2 CFU/ml
same,headspace carbon dioxide concentration leveled out,"[2]; Example 3: 400 ppm DGH added to contaminated AIRFLEX 400 (5.4×10^4 cfu/ml, 1600 ppm CO2 before), monitored 2 days, background ~400 ppm",about 1150 ppm
same,CO2,[2]; [3],1150 ppm
same,headspace carbon dioxide concentration leveled out,"[2]; Example 4: additional 375 ppm DGH added to Example 3 sample (400 ppm DGH), monitored 3 days",about 1000 ppm
same,CO2,[2]; [4],1000 ppm
same,headspace carbon dioxide concentration leveled out,"[2]; Example 5: additional 350 ppm DGH added to Example 4 sample (400 + 375 ppm DGH), monitored 3 days",about 800 ppm
same,CO2,[2]; [5],800 ppm
